# Where two headings read alike, the source gives them in different places.
# How the values were obtained:
# [1] = test system: protein kinases (human kinome); type: cell-based; conditions: for logFC CSNK1D: CSNK1D P48730-2; for logFC of FER: FER P16591-3; for logFC LCK: accession P06239-3; for logFC RPS6KA1: RPS6KA1 (Q15418-2)
# [2] = target: T1, protein kinases (human kinome) (Homo sapiens, UniProt Q9NYY8); type: cell-based; conditions: Experiment wp016, 1 uM; direction down
# T1 sequence (Q9NYY8 1-710): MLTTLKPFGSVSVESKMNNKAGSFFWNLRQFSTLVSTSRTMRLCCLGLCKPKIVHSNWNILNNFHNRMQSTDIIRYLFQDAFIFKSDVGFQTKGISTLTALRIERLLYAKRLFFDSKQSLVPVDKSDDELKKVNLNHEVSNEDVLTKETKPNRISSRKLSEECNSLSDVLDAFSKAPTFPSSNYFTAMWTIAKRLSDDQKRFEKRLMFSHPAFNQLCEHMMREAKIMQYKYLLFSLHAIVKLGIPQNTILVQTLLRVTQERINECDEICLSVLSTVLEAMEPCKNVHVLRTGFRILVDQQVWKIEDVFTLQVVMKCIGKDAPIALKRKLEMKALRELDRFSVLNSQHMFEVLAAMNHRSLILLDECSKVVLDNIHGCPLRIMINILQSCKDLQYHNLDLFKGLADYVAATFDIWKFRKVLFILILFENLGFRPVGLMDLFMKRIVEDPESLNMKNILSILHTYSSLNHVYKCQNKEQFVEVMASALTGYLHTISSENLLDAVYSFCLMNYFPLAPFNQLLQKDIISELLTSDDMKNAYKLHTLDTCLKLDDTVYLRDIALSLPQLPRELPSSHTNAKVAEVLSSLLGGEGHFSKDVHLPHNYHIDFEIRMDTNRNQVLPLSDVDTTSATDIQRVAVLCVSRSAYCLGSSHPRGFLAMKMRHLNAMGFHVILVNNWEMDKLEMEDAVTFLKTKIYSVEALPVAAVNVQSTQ
# [3] = target: T2, extended human kinome (kinase-like proteins) (Homo sapiens, UniProt P54886); assay: Whole cell quantitative proteomics: extended kinome hits; conditions: Accession P54886; experiment wp160; 1 hr
# T2 sequence (P54886 1-795): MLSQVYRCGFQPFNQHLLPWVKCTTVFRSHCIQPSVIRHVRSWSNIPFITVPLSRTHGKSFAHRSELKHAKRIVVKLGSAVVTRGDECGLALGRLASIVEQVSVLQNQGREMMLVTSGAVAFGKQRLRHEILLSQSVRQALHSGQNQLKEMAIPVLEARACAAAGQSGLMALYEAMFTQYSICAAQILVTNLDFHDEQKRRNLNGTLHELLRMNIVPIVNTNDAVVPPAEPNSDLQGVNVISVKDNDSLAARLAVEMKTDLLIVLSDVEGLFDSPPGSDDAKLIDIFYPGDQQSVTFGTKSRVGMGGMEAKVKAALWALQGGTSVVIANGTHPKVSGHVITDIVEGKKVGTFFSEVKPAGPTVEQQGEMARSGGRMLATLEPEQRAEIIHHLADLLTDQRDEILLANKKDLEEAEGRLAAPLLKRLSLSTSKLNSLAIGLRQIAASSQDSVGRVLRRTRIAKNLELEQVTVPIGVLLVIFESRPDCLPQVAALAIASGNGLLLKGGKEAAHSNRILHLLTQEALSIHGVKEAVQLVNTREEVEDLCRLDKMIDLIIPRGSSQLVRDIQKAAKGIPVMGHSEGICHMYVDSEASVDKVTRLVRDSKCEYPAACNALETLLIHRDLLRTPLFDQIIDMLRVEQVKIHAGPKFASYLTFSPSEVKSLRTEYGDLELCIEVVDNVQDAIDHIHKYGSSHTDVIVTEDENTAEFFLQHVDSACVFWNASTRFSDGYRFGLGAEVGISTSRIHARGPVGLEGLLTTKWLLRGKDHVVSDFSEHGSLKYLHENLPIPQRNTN
# [4] = Experiment wp107, direction down
# [5] = experiment wp016, 1 uM, direction of change down
# [6] = experiment wp016, direction of change down
# [7] = experiment wp103, direction of change down
# [8] = experiment wp107, direction of change down
# [9] = experiment wp133, 2 hr, direction of change down
# [10] = experiment wp133, 4 hr, direction of change down
compound,measurement,setting,value
CC(C)S(=O)(=O)c1ccccc1Nc1nc(Nc2ccc(N3CCN(CCOCCNC(=O)CNc4cccc5c4C(=O)N(C4CCC(=O)NC4=O)C5=O)CC3)cc2)ncc1Cl (centres unmarked) [SK.3.91],logFC,"[1]; CDK18 (Q07002-3), experiment wp114",−0.8295
same,logFC CSNK1D,[1]; experiment wp114,−0.3991
same,logFC CSNK1D,"[1]; experiment wp160, 4 hr",−0.3373
same,logFC PRKAA1 (Q13131-2),"[1]; Experiment wp016, 1 uM, direction down",−0.7977
same,logFC PRKAA1 (Q13131-2),"[1]; Experiment wp016, direction down",−0.4914
same,logFC CDK9 (P50750-2),[1]; Experiment wp103,−0.7857
same,logFC PRKAA1 (Q13131-2),"[1]; Experiment wp103, direction down",−0.5012
same,logFC PRKAA1 (Q13131-2),"[1]; Experiment wp105, direction down",−0.4413
same,logFC MAP3K12 (Q12852-2),"[1]; Experiment wp105, direction of change down",−0.6931
same,logFC CDK9 (P50750-2),[1]; Experiment wp107,−1.2
same,logFC of CDK12 (Q9NYV4-2),[1]; Experiment wp107,−1.042
same,logFC PRKAA1 (Q13131-2),[1]; [4],−0.6352
same,logFC TNK2 (Q07912-3),[1]; [4],−1.18
same,logFC of CDK18 (Q07002-3),[1]; Experiment wp114,−0.8295
same,logFC TNK1 (Q13470-2),"[1]; Experiment wp114, direction of change down",−0.7394
same,logFC PRKAA1 (Q13131-2),"[1]; Experiment wp133, 2 hr, direction down",−0.3804
same,logFC PRKAA1 (Q13131-2),"[1]; Experiment wp133, 4 hr, direction down",−0.6752
same,logFC of CDK12 (Q9NYV4-2),"[1]; Experiment wp160, 2 hr",−0.4558
same,logFC ABL2 (P42684-5),[1]; Experiment wp172,−0.7139
same,logFC of ABL2 (P42684-5),[1]; Experiment wp172,−0.7139
same,logFC,"[1]; FER (P16591-3), experiment wp114, direction down",−2.308
same,logFC,"[1]; FER (P16591-3), experiment wp172, direction down",−2.816
same,logFC of FER,[1]; experiment wp114,−2.308
same,logFC of FER,[1]; experiment wp172,−2.816
same,logFC LCK,[1]; [5],−1.579
same,logFC LCK,[1]; [6],−0.9189
same,logFC LCK,[1]; [7],−1.148
same,logFC LCK,[1]; [8],−1.575
same,logFC LCK,[1]; [9],−0.5352
same,logFC LCK,[1]; [10],−1.277
same,logFC,"[1]; LIMK2 (P53671-3), experiment wp105, direction down",−0.8401
same,logFC of LIMK2,"[1]; LIMK2 P53671-3, experiment wp105",−0.8401
same,logFC,"[1]; MARK2 Q7KZI7-14, experiment wp105",−0.4159
same,logFC,"[1]; MARK2 Q7KZI7-14, experiment wp133, 4 hr",−0.4086
same,logFC,"[1]; PIP5K1A (Q99755-3), experiment wp107",−0.45
same,logFC,"[1]; PIP5K1A (Q99755-3), experiment wp133, 4 hr",−0.3712
same,logFC,"[1]; PTK2B (Q14289-2), experiment wp107, direction down",−3.126
same,logFC PTK2B,"[1]; PTK2B, accession Q14289-2, experiment wp107, direction of change down",−3.126
same,logFC RPS6KA1,"[1]; experiment wp016, 1 uM",−0.4146
same,logFC RPS6KA1,"[1]; experiment wp133, 4 hr",−0.3598
same,logFC,"[1]; SRC (P12931-2) protein abundance, degrader vs DMSO, 1 uM, down",−0.8428
same,logFC,"[1]; SRC (P12931-2) protein abundance, degrader vs DMSO, 4 hr, down",−0.6408
same,logFC,"[1]; STK40 (Q8N2I9-4), experiment wp105, direction down",−0.606
same,logFC,"[1]; STK40 Q8N2I9-4, experiment wp105",−0.606
same,logFC,"[1]; TNK2 (Q07912-3), experiment wp107, direction down",−1.18
same,logFC CDK9 (P50750-2),[1]; experiment wp016,−0.6515
same,logFC PRKAA1 (Q13131-2),[1]; experiment wp016,−0.4914
same,logFC ABL1 (P00519-2),"[1]; experiment wp016, 1 uM",−0.3875
same,logFC CDK9 (P50750-2),"[1]; experiment wp016, 1 uM",−1.356
same,logFC PRKAA1 (Q13131-2),"[1]; experiment wp016, 1 uM",−0.7977
same,logFC RPS6KA1 (Q15418-2),"[1]; experiment wp016, 1 uM",−0.4146
same,logFC LCK (P06239-3),[1]; [5],−1.579
same,logFC LCK (P06239-3),[1]; [6],−0.9189
same,logFC PRKAA1 (Q13131-2),[1]; experiment wp103,−0.5012
same,logFC LCK (P06239-3),[1]; [7],−1.148
same,logFC ABL1 (P00519-2),[1]; experiment wp105,−0.333
same,logFC CDK9 (P50750-2),[1]; experiment wp105,−0.6775
same,logFC CDK16 (Q00536-2),[1]; experiment wp105,−0.6346
same,logFC PRKAA1 (Q13131-2),[1]; experiment wp105,−0.4413
same,logFC of CDK18 (Q07002-3),[1]; experiment wp105,−1.233
same,logFC of MARK2 (Q7KZI7-14),[1]; experiment wp105,−0.4159
same,logFC ABL1 (P00519-2),[1]; experiment wp107,−0.4711
same,logFC CDK16 (Q00536-2),[1]; experiment wp107,−0.4701
same,logFC PRKAA1 (Q13131-2),[1]; experiment wp107,−0.6352
same,logFC ULK3 (Q6PHR2-4),[1]; experiment wp107,−1.084
same,logFC LCK (P06239-3),[1]; [8],−1.575
same,logFC TGFBR1 (P36897-2),[1]; [8],−0.5264
same,logFC ULK3 (Q6PHR2-4),[1]; [8],−1.084
same,logFC CDK9 (P50750-2),"[1]; experiment wp133, 2 hr",−0.3971
same,logFC PRKAA1 (Q13131-2),"[1]; experiment wp133, 2 hr",−0.3804
same,logFC LCK (P06239-3),[1]; [9],−0.5352
same,logFC ABL1 (P00519-2),"[1]; experiment wp133, 4 hr",−0.3801
same,logFC CDK9 (P50750-2),"[1]; experiment wp133, 4 hr",−1.037
same,logFC PRKAA1 (Q13131-2),"[1]; experiment wp133, 4 hr",−0.6752
same,logFC RPS6KA1 (Q15418-2),"[1]; experiment wp133, 4 hr",−0.3598
same,logFC of MARK2 (Q7KZI7-14),"[1]; experiment wp133, 4 hr",−0.4086
same,logFC LCK (P06239-3),[1]; [10],−1.277
same,logFC of CDK12 (Q9NYV4-2),"[1]; experiment wp160, 4 hr",−0.8448
same,logFC MAP3K12,"[1]; protein MAP3K12 (Q12852-2), experiment wp105, down",−0.6931
same,logFC TGFBR1,"[1]; protein TGFBR1 (P36897-2), experiment wp107, down",−0.5264
same,logFC TNK1,"[1]; protein TNK1 (Q13470-2), experiment wp114, down",−0.7394
same,logFC FASTKD2 (Q9NYY8),[2],−0.4507
same,logFC ALDH18A1,[3],−0.9684
